US20260207490A1, “Hydroxydiphenylethane compound ointment, use thereof, and method for preparing same” (Cutia Therapeutics (Wuxi) Co., Ltd., priority 2022, published 2026)

How the values were obtained:
[1] = Saturated solubility in different excipients; format: physicochemical
[2] = Saturated solubility in medium-chain triglycerides / isopropyl myristate / light liquid paraffin mixtures; format: physicochemical; conditions: for Saturation solubility of 2-isopropyl-5-(2′-phenylethyl)-1,3-benzenediol: room temperature
Excerpt: Experimental variables A, B, and C were set as the content of medium-chain triglycerides (%), isopropyl myristate (%), and light liquid paraffin (%), respectively (for the convenience of experimental design and operation, light liquid paraffin was used to represent all hydrocarbon compounds). According to the maximum safe dosage of excipients (FDA IID database), the variable range was set as follows: 0<A≤20, 0<B≤20. According to the preliminary experimental results (medium-chain triglycerides are more important for the dissolution of API and the stability of the system) and the requirements for the viscosity and skin feel of the ointment, the constraints were set as follows: A>B; A+B≤25%; A+B+C=100%.
According to the variable range and constraint conditions, a total of 20 experimental formulations were designed. After the components were mixed evenly in proportion, an excess of 2-isopropyl-5-(2′-phenylethyl)-1,3-benzenediol was added, stirred overnight at room temperature, centrifuged, the supernatant was filtered and diluted, and the saturated solubility of 2-isopropyl-5-(2′-phenylethyl)-1,3-benzenediol was tested.
The saturated solubility of 2-isopropyl-5-(2′-phenylethyl)-1,3-benzenediol in different proportions of medium-chain triglycerides, isopropyl myristate and light liquid paraffin solution was investigated to verify the accuracy of the prediction equation. The equation can accurately predict the solubility of API in different proportions of excipients. In practical applications, it is acceptable that the API content is within the range of no more than 1.2 times the saturated solubility, that is, 120%×(0.445829×A+0.032300×B−0.000599×C+0.008112×A×B−0.003841×A×C). Preferably, when the content of the active ingredient in the preparation is not higher than 0.445829×A+0.032300×B−0.000599×C+0.008112×A×B−0.003841×A×C, a better solution-type ointment can be prepared. It is further preferred that the content of the active ingredient in the preparation is not higher than 90% of the saturated solubility, that is, the content of the active ingredient in the preparation is not higher than 90%×(0.445829×A+0.032300×B−0.000599×C+0.008112×A×B−0.003841×A×C).

Work on `CC(C)c1c(O)cc(CCc2ccccc2)cc1O` [2-isopropyl-5-(2′-phenylethyl)-1,3-benzenediol] yielded a saturated solubility ([1]; in 10% glycerol) of 0.00007%, a saturated solubility ([1]; in 20% ethanol) of 0.02% and a saturated solubility ([1]; in Span 80) of 3%. It also gave a saturated solubility ([1]; in diethylene glycol monoethyl ether) of 52%, a saturated solubility ([1]; in isopropyl myristate) of 27% and a saturated solubility ([1]; in isopropyl palmitate) of 23%. The saturated solubility ([1]; in light liquid paraffin) was 0.01%, the saturated solubility ([1]; in medium-chain triglycerides) was 27% and the saturated solubility ([1]; in polyethylene glycol 400) was 30%. The saturated solubility ([1]; in polysorbate 80) was 17%, the saturated solubility ([1]; in propylene glycol) was 30% and the saturated solubility ([1]; in propylene glycol monolaurate) was 30%. For the same compound, the saturated solubility ([1]; in water) was 0.0008%, the “Saturation solubility of 2-isopropyl-5-(2′-phenylethyl)-1,3-benzenediol” value (“Saturation solubility” for short) ([2]; experimental formulation 1: MCT 5.97%, isopropyl myristate 5.97%, light liquid paraffin 88.06%) was 1.09% and the “Saturation solubility” value ([2]; experimental formulation 2: MCT 6.63%, isopropyl myristate 6.63%, light liquid paraffin 86.74%) was 1.22%. The “Saturation solubility” value ([2]; experimental formulation 3: MCT 20.00%, isopropyl myristate 0.00%, light liquid paraffin 80.00%) was 2.47%, the “Saturation solubility” value ([2]; experimental formulation 4: MCT 2.00%, isopropyl myristate 0.00%, light liquid paraffin 98.00%) was 0.11% and the “Saturation solubility” value ([2]; experimental formulation 5: MCT 12.50%, isopropyl myristate 12.50%, light liquid paraffin 75.00%) was 3.78%. The “Saturation solubility” value ([2]; experimental formulation 6: MCT 16.15%, isopropyl myristate 0.00%, light liquid paraffin 83.85%) was 2.07%, the “Saturation solubility” value ([2]; experimental formulation 7: MCT 20.00%, isopropyl myristate 0.00%, light liquid paraffin 80.00%) was 2.91% and the “Saturation solubility” value ([2]; experimental formulation 8: MCT 18.79%, isopropyl myristate 6.21%, light liquid paraffin 75.00%) was 4.13%. For the same compound, the “Saturation solubility” value ([2]; experimental formulation 9: MCT 11.30%, isopropyl myristate 3.90%, light liquid paraffin 84.80%) was 1.73%, the “Saturation solubility” value ([2]; experimental formulation 10: MCT 11.62%, isopropyl myristate 2.02%, light liquid paraffin 86.36%) was 1.55% and the “Saturation solubility” value ([2]; experimental formulation 11: MCT 10.84%, isopropyl myristate 0.00%, light liquid paraffin 89.16%) was 1.05%. For the same compound, the “Saturation solubility” value ([2]; experimental formulation 12: MCT 12.50%, isopropyl myristate 12.50%, light liquid paraffin 75.00%) was 3.42%, the “Saturation solubility” value ([2]; experimental formulation 13: MCT 9.35%, isopropyl myristate 8.77%, light liquid paraffin 81.88%) was 2.20% and the “Saturation solubility” value ([2]; experimental formulation 14: MCT 17.87%, isopropyl myristate 7.13%, light liquid paraffin 75.00%) was 4.11%. For the same compound, the “Saturation solubility” value ([2]; experimental formulation 15: MCT 10.84%, isopropyl myristate 0.00%, light liquid paraffin 89.16%) was 1.06%, the “Saturation solubility” value ([2]; experimental formulation 16: MCT 15.17%, isopropyl myristate 4.03%, light liquid paraffin 80.80%) was 2.65% and the “Saturation solubility” value ([2]; experimental formulation 17: MCT 13.29%, isopropyl myristate 8.31%, light liquid paraffin 78.40%) was 3.98%. For the same compound, the “Saturation solubility” value ([2]; experimental formulation 18: MCT 5.84%, isopropyl myristate 1.16%, light liquid paraffin 93.00%) was 0.48%, the “Saturation solubility” value ([2]; experimental formulation 19: MCT 2.00%, isopropyl myristate 0.00%, light liquid paraffin 98.00%) was 0.09% and the “Saturation solubility” value ([2]; experimental formulation 20: MCT 18.79%, isopropyl myristate 6.21%, light liquid paraffin 75.00%) was 3.95%. It also gave a Measured saturated solubility ([2]; validation group 1: MCT 20%, isopropyl myristate 0.85%, light liquid paraffin 79.15%) of 3.32%, a Measured saturated solubility ([2]; validation group 2: MCT 20%, isopropyl myristate 3.4%, light liquid paraffin 76.6%) of 3.85% and a Measured saturated solubility ([2]; validation group 3: MCT 13.75%, isopropyl myristate 9.23%, light liquid paraffin 77.02%) of 3.52%. It also gave a Measured saturated solubility ([2]; validation group 4: MCT 11.2%, isopropyl myristate 7.55%, light liquid paraffin 81.25%) of 2.56%, a Measured saturated solubility ([2]; validation group 5: MCT 8.72%, isopropyl myristate 5.04%, light liquid paraffin 86.24%) of 1.58% and a Measured saturated solubility ([2]; validation group 6: MCT 3%, isopropyl myristate 3%, light liquid paraffin 94%) of 0.401%. It also gave a Measured saturated solubility ([2]; validation group 7: MCT 2%, isopropyl myristate 2%, light liquid paraffin 96%) of 0.203%.
